From US20070099881A1, “Method of treating wounds by enhancing expression of procollagen” (priority 2001, published 2007)
“Also recorded” adds a separate entry of the source.

Key:
[1] = system: type I procollagen mRNA; experiment: Northern blot of type I procollagen mRNA in HF 250 fibroblasts grown on collagen or plastic; assay type: cell-based, human; settings: 3 μg/ml, 24 hours, vs 10% dimethyl sulfoxide alone; for expression of type I procollagen mRNA (ratio to GAPDH mRNA density) relative to control: fibroblasts grown on collagen; for expression of type I procollagen mRNA relative to control: fibroblasts grown on plastic
Protocol: (§1) A primary cell line of normal human dermal fibroblasts (HF 250) was derived from the outgrowth of cells from explants of discarded foreskin. Fibroblasts were maintained in Dulbecco's modification of Eagles medium (DMEM) supplemented with 10% fetal bovine serum (FBS). Cells were grown to confluence and passed 1:1 by trypsinization. HF 250 cells were used between their 5th and 7th passages.
(§2) Acid-soluble collagen was isolated from rat tail tendons by acetic acid extraction. Briefly, rat tail tendons were teased from adult rat tails and stirred in ice cold 0.5 M acetic acid for 2 days. The solubilized collagen was cleared by centrifugation and the supernatant made 10% in respect to NaCl w/v. The precipitated collagen was collected by centrifugation, resuspended in 1 mM HCl, dialyzed exhaustively against 1 mM HCl, frozen, lyophilized, weighed, resuspended in sterile ice cold 1 mM HCl at 5 mg/ml and stored at 4° C. until needed. The bottoms of 10 cm Petri dishes were covered with cold, sterile collagen solution. Any free collagen solution was removed with a Pasteur pipette and the coated dishes placed in a 37° C. incubator, where they were incubated overnight to allow complete polymerization of the collagen-coated surface.
(§3) To optimize collagen synthesis and processing by cultured fibroblasts, the culture medium was supplemented with 50 μg/ml of vitamin C as L-ascorbic acid 2-phosphate sesquimagnesium salt (Sigma Chemical Co., St. Louis, Mo.). Oxandrolone was the anabolic steroid tested, and it was supplied by Bio-Technology General Corp., Iselin, N.J. A stock solution of oxandrolone was made in a 10% dimethyl-sulfoxide solution.
(§4) Equal numbers of fibroblasts were plated onto tissue culture plastic dishes or collagen-coated Petri dishes. Four confluent 10 cm dishes of HF 250 cells were split in half and the cells replated in four 10 cm collagen-coated and four uncoated dishes. Two collagen-coated dishes and two uncoated dishes received 3 μg/ml of oxandrolone. The two remaining collagen-coated and uncoated dishes received an equal volume of 10% dimethyl-sulfoxide alone. After 24 hours of incubation, the medium was removed and the dishes rinsed with phosphate buffered saline. Northern blot analysis was used to determine the levels of both type I and type III procollagen mRNA expression. Total RNA was extracted from culture cells, using the Total RNA Isolation kit (Ambion, Inc; Austin, Tex.) following the supplier's instructions. […]
(§5) Total extracted RNA was subjected to agarose gel electrophoresis and blotted on a nylon membrane. […] The x-ray film was developed and quantitative analysis done by densitometry. […] The quantities of type I and type III procollagen α1 mRNAs and GAPDH mRNA were determined by densitometry. […]

[2] = system: type III procollagen mRNA; experiment: Northern blot of type III procollagen mRNA in HF 250 fibroblasts grown on collagen or plastic; assay type: cell-based, human; settings: 3 μg/ml, 24 hours, vs 10% dimethyl sulfoxide alone; for increase of type III procollagen mRNA expression (ratio to GAPDH mRNA density) relative to control: fibroblasts grown on collagen; for expression of type III procollagen mRNA relative to control: fibroblasts grown on plastic
Protocol: as §1, §2, §3, §4, §5

[3] = system: normal human dermal fibroblasts (HF 250); experiment: Pilot study: collagen produced by fibroblast cultures, pepsin extraction and SDS-PAGE of collagen α chains; assay type: cell-based; settings: 0, 1, 3, 10 or 30 μg/ml tested, 24 hours, ascorbate 50 μg/ml, Coomassie-stained SDS-PAGE; data not shown
Protocol: as §1, §3
An initial pilot study was conducted to determine the concentration of anabolic steroid that would maximize collagen synthesis, as follows. After fibroblast cultures became confluent in 2 days, the culture medium was replaced with a medium supplemented with ascorbate at 50 μg/ml. To each dish, a different concentration of oxandrolone was added (0, 1, 3, 10 or 30 μg/ml). Dishes were incubated for 24 hours in a water saturated atmosphere at 37° in 95% air, 5% CO2. […]

[4] = system: HF 250 cells; experiment: Cell number and morphology of fibroblasts grown on collagen or plastic; assay type: cell-based, human; settings: 3 μg/ml, 24 hours
Protocol: Equal numbers of fibroblasts were plated onto tissue culture plastic dishes or collagen-coated Petri dishes. Four confluent 10 cm dishes of HF 250 cells were split in half and the cells replated in four 10 cm collagen-coated and four uncoated dishes. Two collagen-coated dishes and two uncoated dishes received 3 μg/ml of oxandrolone. The two remaining collagen-coated and uncoated dishes received an equal volume of 10% dimethyl-sulfoxide alone. After 24 hours of incubation, the medium was removed and the dishes rinsed with phosphate buffered saline. Northern blot analysis was used to determine the levels of both type I and type III procollagen mRNA expression. Total RNA was extracted from culture cells, using the Total RNA Isolation kit (Ambion, Inc; Austin, Tex.) following the supplier's instructions. Type I and type III procollagen cDNAs were purchased from American Type Culture Collection (Manassas, Va.). The human α1 (I) (HF677) and α1 (III) (HF934) procollagen cDNAs were enzymatically cleaved, purified, and subsequently end-labeled with ^32P dCTP (New England Nuclear, Boston, Mass.) to generate specific cDNA probes.
By 24 hours, the density of cells on the plastic surface appeared greater than the density of cells grown on collagen. […] See, e.g., Greco and Ehrlich (1992).

C[C@]12COC(=O)C[C@@H]1CC[C@@H]1[C@@H]2CC[C@@]2(C)[C@H]1CC[C@]2(C)O [Oxandrolone, 17-methyl-17-hydroxy-2-oxa-5-androstan-3-one] was tested, and the “expression of type I procollagen mRNA (ratio to GAPDH mRNA density) relative to control” value [1] was “doubled; also recorded: increased”, the “expression of type I procollagen mRNA (ratio to GAPDH mRNA density) relative to control” value ([1]; listed as oxandrolone) was “doubles” and the “expression of type I procollagen mRNA relative to control” value [1] was “did not noticeably change; also recorded: minimal effect”. For the same molecule, the “expression of type I procollagen mRNA relative to control” value ([1]; listed as oxandrolone) was “minimal change”, the “increase of type III procollagen mRNA expression (ratio to GAPDH mRNA density) relative to control” value [2] was “enhanced” and the “increase of type III procollagen mRNA expression (ratio to GAPDH mRNA density) relative to control” value ([2]; listed as oxandrolone) was 11 fold. For the same molecule, the “expression of type III procollagen mRNA relative to control” value [2] was “enhanced”, the “expression of type III procollagen mRNA relative to control” value ([2]; listed as oxandrolone) was “minimal change; also recorded: minimal effect” and the “concentration giving the maximal intensity of collagen α chain staining” value [3] was 3 µg/mL. For the same molecule, the cell morphology [4] was “no obvious difference” and the number of fibroblasts [4] was “did not affect”.
